Experimental data reported in US12201796B2, “Devices configured to provide treatment at an Abreu brain thermal tunnel” (Brain Tunnelgenix Technologies Corp., priority 2014, dated 2025).

Experiments:
[1] = comparison of caffeine absorption into the blood stream from a patch on ABTT terminus and a patch on an upper arm; format: in vivo
Protocol: One experimental technique used by Applicant to verify the efficacy of the systems, apparatuses, devices, processes, and methods disclosed herein was to compare absorption of a chemical into the blood stream. The chosen chemical was caffeine, and a comparison was made between distribution of caffeine in the body from a 15 mm by 15 mm patch placed on ABTT terminus 10 and a 15 mm by 15 mm patch placed on an upper arm. Caffeine concentration was measured in the same location on the body. […] As is evident from FIG. 106, the peak concentration of caffeine from the patch placed on the arm occurred five hours after placement of the patch, which peak concentration from the patch placed on ABTT terminus 10 was about 30 minutes after placement of the patch. […] Other compounds tested show similar results. […] In addition, it should be noted that use of a known patch would be disadvantageous if applied to ABTT terminus 10, because a lesser quantity of a drug is required to achieve the same results. […] In order to achieve the same effect at ABTT terminus 10 as application of a conventional patch in a conventional application, only about ⅔ the quantity of a drug is required for the same effect at ABTT terminus 10.

[2] = in vivo; cited from earlier work
[3] = transdermal melatonin patch on the skin of ABTT target area, research setting; details: patch with water, propylene glycol, lauric acid, hydroxypropylcellulose; non-rate-limiting membrane; contact area 1.0 cm^2
Text: As a solution to this problem, MEL was applied transdermally on the skin of ABTT target area 10 using a patch that contained, in a solvent formulation, water, propylene glycol, lauric acid, and hydroxypropylcellulose, and also comprised a non-rate-limiting membrane designed to have active contact with an area 1.0 cm^2.

Row | Compound | time of peak concentration of caffeine after placement of the patch ([1]; 15 mm by 15 mm patch placed on ABTT terminus, FIG. 106 curve 1416) | time of peak concentration of caffeine after placement of the patch ([1]; 15 mm by 15 mm patch placed on upper arm, FIG. 106 curve 1414) | peak concentration from patch on ABTT terminus relative to peak concentration from patch on upper arm ([1]; 15 mm by 15 mm patches, concentration measured in the same location on the body) | elimination half-life [2] | therapeutic effect of patch delivering melatonin through the skin of ABTT target area [3]
1 | Cn1c(=O)c2c(ncn2C)n(C)c1=O [caffeine] | about 30 minutes | five | more than twice as high |  | 
2 | COc1ccc2[nH]cc(CCNC(C)=O)c2c1 [melatonin] |  |  |  | short | shown to provide an intended therapeutic effect
